Key:
a variety of cell types = test: Western blot analysis (Bcl-xL, Vimentin, oxidative phosphorylation and mitochondrial membrane proteins); type: cell-based; settings: 50 or 100 μM Q10
Method: Approximately 50 μg of protein were assayed per sample by immunoblotting. All treatments were run in triplicate with controls. […] The primary antibodies were incubated overnight at 4 degrees C. in a 5% BSA and TBST solution. Secondary antibodies were incubated for one hour at 4 degrees. All antibodies were purchased from Cell Signaling Technology. Antibodies were used at a ratio of 1:1000, with the exception of PActin at a ratio of 1:5000. Blots were developed and results were quantified using the NIH Java based densitometer analysis software Image J. All blots were also probed for and normalized to their respective PActin expression.
The first experiment processed and evaluated by Western blot and 2-D gel electrophoresis was carried out on the skin cancer cell line SKMEL-28.
A variety of cell types were evaluated by Western blot analysis against an antibody for Bcl-xL (FIG. 14), an antibody for Vimentin (FIG. 15), a series of antibodies for mitochondrial oxidative phosphorylation function (FIGS. 16-21) and against a series of antibodies related to mitochondrial membrane integrity (FIGS. 22-27).

[1] = test system: PaCa-2 pancreatic cancer cells; test: Oxygen consumption rate (OCR), SeaHorse XF analyzer; type: cell-based; settings: absence and presence of stressors (FIG. 32)
Source text: (§1) Environmental influencers (e.g., MIMs or Epi-shifters) may also be identified by changes in cellular energetics. One example of the measurement of cellular energetics are the real-time measures of the consumption of molecular oxygen and/or the change in pH of the media of a cell culture. For example, the ability of a potential epi-shifter to modulate the metabolic state of a cell may be analyzed using, for example, the XF24 Analyzer (Seahorse, Inc.). This technology allows for real time detection of oxygen and pH changes in a monolayer of cells in order to evaluate the bioenergetics of a cell microenvironment. The XF24 Analyzer measures and compares the rates of oxygen consumption (OCR), which is a measure of aerobic metabolism, and extracellular acidification (ECAR), which is a measure of glycolysis, both key indicators of cellular energetics.
(§2) (SeaHorse Biosciences Inc, North Billerica, Mass.).
(§3) In contrast, cancer cells (e.g., MCF-7, PaCa-2) are inherently primed to culture at higher levels of glucose compared to normal cells due to their glycolytic phenotype for maintenance in culture.

[2] = test system: MCF-7 breast cancer cells; test: as above; type: cell-based; settings: absence and presence of stressors (FIG. 31)
Source text: as §1, §2, §3

melanoma cell = test: Bcl2 level after CoQ-10 in the presence of VEGF; type: cell-based
[3] = test system: Succinate Dehydrogenase (SDH) Subunit B; test: Western blot, Succinate Dehydrogenase B in mitochondrial preparations; type: cell-based; settings: for Succinate Dehydrogenase B Average Normalized Volume: NCIE0808 Mitopreps
Method: The above blots were stripped by incubating for 30 minutes with methanol, followed by two 10 minute washes with TBS-T, then 30 minutes of incubation with Stripping buffer at 50 deg C., and followed by two washes with 100 ml or more of TBS-T for 30′ each. The blots were scanned in laser scanner to check for complete stripping. The blots were activated with methanol for 5 seconds, washed with water for 5 minutes, and TBST for 15 minutes. The blots were blocked for 1 hour with 5% blocking reagent in TBS-T at room temperature and then washed 3 times with TBS-T (1×-15′; 2×5′ each) and probed with the primary antibody for PKM2, SDHB or SDHC in 5% BSA in TBS-T by incubation overnight at 4 deg C. with gentle shaking. The primary antibody for SDHC (ABNOVA H00006391-MO2; antimouse) was at 1:500 dilution. The primary antibody for SDHB was from Abcam ab4714-200; antimouse; at 1:1000 dilution. The primary antibody for Pyruvate Kinase M2 (PKM2) was from Novus Biologicals H00005315-D0IP; antirabbit; at 1:500 dilution. After incubation with primary antibodies, the membranes were washed 3 times with TBS-T (1×-15′; 2×5′ each) and probed with the secondary antibody (SDHB & C antimouse; and PKM2 antirabbit; 1:10,000 dilution) for 1 h on the orbital tilting shaker at room temperature. After 1 h of incubation, the blots were washed 3 times with TBS-T (1×-15′; 2×5′ each) and incubated with ECF reagent for 5 minutes and then each blot scanned with 5100 Fuji Laser scanner at 25 uM resolution, 16 bit, green laser, at 400V and at 500 V.

PaCa2 cells = test: Nexin assay for apoptosis (Annexin-V-PE/7-AAD flow cytometry), 24 h Q10; type: cell-based; settings: 50 μM Q10 and 100 μM Q10, 24 hours
Source text: The 7AAD dye will enter into cells with permeabilized cell membranes; primarily those cells that are in late apoptosis. Annexin-V-PE is a dye that binds to Phosphotidyl serine, which is exposed on the outer surface of the plasma membrane in early apoptotic cells. The Nexin reagent thus can be used to differentiate between different populations of apoptotic cells in a flow cytometer.

HK-2 cells = test: Diabetes PCR array in cell model for diabetes (22 mM glucose); type: cell-based, human
Method: The HK-2 and HASMC cells are normally maintained in culture at 5.5 mM glucose, which is a concentration that corresponds to a range considered normal in human blood. However, in order to simulate a diabetic environment, both cell lines were subsequently maintained at 22 mM glucose, which corresponds to the range observed in human blood associated with chronic hyperglycemia. The cells were subsequently allowed to propagate over 3 passages so that the intracellular regulation processes were functionally adapted to mimic a diabetic state. The choice of cell line was based on the physiologic influence of diabetes on renal dysfunction and progression to end-stage renal disease (ESRD) in addition to the progressive pathophysiology of a compromised cardiovascular function.
The Diabetes PCR array (SABiosciences) offers a screen for 84 genes simultaneously.
A stringent analysis of the Real time PCR data of the HK-2 samples on the Diabetes Arrays (Cat # PAHS-023E, SABiosciences Frederick Md.) was made to exclude all results where gene regulation was not at least a two-fold regulation over HK-2 normal untreated cells with a p value of less than 0.05.

PaCa-2 cells = test: Extracellular acidification rate (ECAR), SeaHorse XF analyzer; type: cell-based; settings: normoxia, high glucose (17 mM)
Source text: as §1, §2
In contrast to normal cells, cancer cells are phenotypically primed to use high glucose for ATP generation (enhanced glycolysis) resulting in higher ECAR (Table 53, ECAR for untreated normoxia 17 mM) at 21 mpH/min. […] The associated decrease in OCR in these cells was likely associated with increased efficiency of the mitochondrial OXPHOS.

COC1=C(OC)C(=O)C(C/C=C(\C)CC/C=C(\C)CC/C=C(\C)CC/C=C(\C)CC/C=C(\C)CC/C=C(\C)CC/C=C(\C)CC/C=C(\C)CC/C=C(\C)CCC=C(C)C)=C(C)C1=O [Q10, Coenzyme Q10]
levels of examined proteins (Western blot) (a variety of cell types): upregulated or downregulated | OCR values [1]: consistent reduction | OCR values [2]: consistent reduction | level of Bcl2 (melanoma cell): decreased level | Succinate Dehydrogenase B Average Normalized Volume ([3]; 50 uM, 6 h): 1077 | Succinate Dehydrogenase B Average Normalized Volume ([3]; 100 uM, 3 h): 964 | Succinate Dehydrogenase B Average Normalized Volume ([3]; 100 uM, 6 h): 934 | SDH protein levels in the mitochondrion ([3]; mitochondrial preparations of cancer cells): increase | increase in both early and late apoptotic cells (PaCa2 cells): 5-10 % of gated cells | CEACAM1 RNA transcript (HK-2 cells; HK2(H) cells, particularly with 100 μM Coenzyme Q10): highly upregulated | insulin receptor (INSR) expression (HK-2 cells; diabetic HK-2 cells): altered | ECAR rates (PaCa-2 cells): significant decrease

From patent US20110020312A1, “METHODS FOR TREATMENT OF METABOLIC DISORDERS USING EPIMETABOLIC SHIFTERS, MULTIDIMENSIONAL INTRACELLULAR MOLECULES, OR ENVIRONMENTAL INFLUENCERS” (priority 2009, published 2011)
